Measurements: PMC9268013, “Design, Synthesis, and Biological Evaluation of N14-Amino Acid-Substituted Tetrandrine Derivatives as Potential Antitumor Agents against Human Colorectal Cancer” (Molecules, 2022)

Tests used:
[1] = system: human colon cancer cells (HCT-15); experiment: MTT antiproliferative assay, HCT-15; type: cell-based; conditions: for Improvement of antiproliferative activity compared with TET: HCT-15 cells, vs TET (IC50 = 6.12 μM); for IC50: Homo sapiens, MTT, 72 h, HCT-15
Protocol: (§1) Human lung cancer cell (A549,), human umbilical vein endothelial cells (HUVECs,), human colon cancer cell lines (HCT-15), human breast cancer cells (MCF-7), human liver cancer cells (HepG2), human pancreatic cancer cells (BxPC-3), and human hepatic cell line (L-02) were obtained from the Sichuan University. A549, HUVECs, and L-02 were cultured in DMEM medium (high glucose, HyClone, GE Healthcare, Sydney, Australia). Human colon cancer cell lines HCT-15, human pancreatic cancer cells […] BxPC-3 were cultured in RPMI-1640. Human breast cancer cells MCF-7 and human liver cancer cells HepG2 were cultured in MEM medium. All the mediums, including 10% fetal bovine serum (FBS, HyClone, GE Healthcare, Sydney, Australia) and 1% ampicillin/streptomycin, were used to culture the above cells at 37 °C in a humidified atmosphere (5% CO2 and 95% air).
(§2) The antiproliferative activity of the title compounds was determined using the MTT (3-(4,5-dimethylthiazol-2-yl)-2,5-diphenyltetrazolium bromide, Sigma-Aldrich, Saint Louis, MO, USA) assay on different cells. Cells lines were seeded into 96-well plates at a density of 2000 to 6000 cells/well. DMSO was used to dissolve the test compounds, and TET was used as a positive control. After 24 h, the test compounds were added at different concentrations (0.625, 1.25, 2.5, 5, 10, and 20 μM) and incubated at 37 °C for 72 h. MTT was added to each well at a final concentration of 0.5 mg/mL and incubated at 37 °C for 4 h. Then, 150 μL of DMSO was added to each well to dissolve the formazan crystals. The absorbance was measured at 570 nm by a microplate reader (ELX800UV, Bio-Tek, Windoski, VT, USA). All measurements were repeated at least three times under the same conditions. Graphpad Prism 8.0 was used to calculate the IC50 values.

[2] = Aqueous solubility determination by HPLC; type: physicochemical; conditions: neutral water, vs TET
Protocol: Briefly, each tested compound (10 mg) was dissolved in 10 mL of CH3OH, and the standard solution (0.5 mL) was used to determine the wavelength of maximum absorbance by HPLC. The solution was diluted as necessary, and the solubility was determined by linear regression with R^2 > 0.999. Each tested compound (5 mg) was ultrasound dissolved in 3 mL of pure water for 1 h at room temperature, and the mixture was then […] at 3000 rpm for 15 min. The saturated supernatants were determined by HPLC at the wavelength of the maximum absorption, and the absorbances were obtained. The solubility was calculated according to the standard curve.

[3] = system: human lung cancer cells (A549); experiment: MTT antiproliferative assay, A549; type: cell-based; conditions: Homo sapiens, A549, 72 h
Protocol: as §1, §2

[4] = system: human breast cancer cells (MCF-7); experiment: MTT antiproliferative assay, MCF-7; type: cell-based; conditions: Homo sapiens, MCF7, 72 h
Protocol: as §1, §2

[5] = system: human pancreatic cancer cells (BxPC-3); experiment: MTT antiproliferative assay, BxPC-3; type: cell-based; conditions: Homo sapiens, BXPC-3, 72 h
Protocol: as §1, §2

[6] = system: human umbilical vein endothelial cells (HUVEC); experiment: MTT antiproliferative assay, HUVEC; type: cell-based; conditions: 72 h
Protocol: as §1, §2

[7] = system: human normal hepatocyte cells (L-02); experiment: MTT toxicity assay, normal hepatocytes L-02; type: cell-based; conditions: 72 h, normal hepatocyte L-02 (toxicity), read-out: Antiproliferative Activity (IC50/μM) L-02
Protocol: as §1, §2

[8] = system: human liver cancer cells (HepG2); experiment: MTT antiproliferative assay, HepG2; type: cell-based; conditions: Homo sapiens, HepG2, 72 h
Protocol: as §1, §2

With `COc1cc(NC(=O)CNC(=O)OC(C)(C)C)c2cc1Oc1ccc(cc1)C[C@H]1c3cc(c(OC)cc3CCN1C)Oc1c(OC)c(OC)cc3c1[C@H](C2)N(C)CC3` [Compound 3, 14-N-(Boc-L-glycine)-tetrandrine] the “Improvement of antiproliferative activity compared with TET” value [1] was “about 2 fold”, the IC50 [1] was 2.42 ± 0.06 µM and the “Increase of aqueous solubility compared to TET” value [2] was “approximately 16 fold”. It also gave an IC50 [3] of 2.15 ± 0.17 µM, an IC50 [4] of 2.91 ± 0.17 µM and an IC50 [5] of 2.55 ± 0.03 µM. It also gave an IC50 [6] of 1.68 ± 0.21 µM, an IC50 [7] of 8.59 ± 0.13 µM and an IC50 [8] of 1.94 ± 0.27 µM.

`COc1cc(NC(=O)[C@H](C)NC(=O)OC(C)(C)C)c2cc1Oc1ccc(cc1)C[C@H]1c3cc(c(OC)cc3CCN1C)Oc1c(OC)c(OC)cc3c1[C@H](C2)N(C)CC3` [Compound 4] gave an IC50 [1] of 3.28 ± 0.32 µM, an IC50 [3] of 7.44 ± 1.11 µM and an IC50 [4] of 5.78 ± 0.35 µM. It also gave an IC50 [5] of 4.74 ± 0.37 µM, an IC50 [6] of 4.01 ± 0.41 µM and an IC50 [7] greater than 20 µM. It also gave an IC50 [8] of 3.9 ± 0.62 µM.

In the case of `COc1cc(NC(=O)[C@@H](NC(=O)OC(C)(C)C)C(C)C)c2cc1Oc1ccc(cc1)C[C@H]1c3cc(c(OC)cc3CCN1C)Oc1c(OC)c(OC)cc3c1[C@H](C2)N(C)CC3` [Compound 5], the IC50 [1] is reported as 4.31 ± 0.09 µM, the IC50 [3] is reported as 7.24 ± 0.41 µM and the IC50 [4] is reported as 7.4 ± 0.31 µM. It also gave an IC50 [5] of 4.63 ± 0.09 µM, an IC50 [6] of 3.04 ± 0.34 µM and an IC50 [7] greater than 20 µM. It also gave an IC50 [8] of 3.54 ± 0.3 µM.

`COc1cc(NC(=O)[C@H](CC(C)C)NC(=O)OC(C)(C)C)c2cc1Oc1ccc(cc1)C[C@H]1c3cc(c(OC)cc3CCN1C)Oc1c(OC)c(OC)cc3c1[C@H](C2)N(C)CC3` [Compound 6] showed an IC50 [1] of 3.89 ± 0.47 µM, an IC50 [3] of 5.54 ± 0.16 µM and an IC50 [4] of 4.99 ± 0.66 µM. It also gave an IC50 [5] of 6.39 ± 0.2 µM, an IC50 [6] of 2.09 ± 0.19 µM and an IC50 [7] of 13.58 ± 0.13 µM. It also gave an IC50 [8] of 3.11 ± 0.68 µM.

Compound `COc1cc(NC(=O)[C@H]2CCCN2C(=O)OC(C)(C)C)c2cc1Oc1ccc(cc1)C[C@H]1c3cc(c(OC)cc3CCN1C)Oc1c(OC)c(OC)cc3c1[C@H](C2)N(C)CC3` [Compound 7, 14-N-(Boc-L-proline)-tetrandrine] has an IC50 [1] of 1.15 ± 0.17 µM, an IC50 [3] of 6.4 ± 0.36 µM and an IC50 [4] of 5.71 ± 0.29 µM. It also gave an IC50 [5] of 3.1 ± 0.26 µM, an IC50 [6] of 3.49 ± 0.31 µM and an IC50 [7] of 17.5 ± 0.21 µM. For the same compound, the IC50 [8] was 3.5 ± 1.37 µM.

`COc1cc(NC(=O)[C@H](CO)NC(=O)OC(C)(C)C)c2cc1Oc1ccc(cc1)C[C@H]1c3cc(c(OC)cc3CCN1C)Oc1c(OC)c(OC)cc3c1[C@H](C2)N(C)CC3` [Compound 8, 14-N-(Boc-L-serine)-tetrandrine] gave an IC50 [1] of 5.87 ± 0.3 µM, an IC50 [3] of 7.45 ± 0.32 µM and an IC50 [4] of 5.84 ± 0.25 µM. The IC50 [5] was 3.55 ± 0.32 µM, the IC50 [6] was 3.96 ± 0.36 µM and the IC50 [7] was greater than 20 µM. For the same compound, the IC50 [8] was 3.76 ± 1.34 µM.

Work on `COc1cc(NC(=O)[C@@H](NC(=O)OC(C)(C)C)[C@@H](C)O)c2cc1Oc1ccc(cc1)C[C@H]1c3cc(c(OC)cc3CCN1C)Oc1c(OC)c(OC)cc3c1[C@H](C2)N(C)CC3` [Compound 9] yielded an IC50 [1] of 8.57 ± 0.57 µM, an IC50 [3] of 12.3 ± 0.61 µM and an IC50 [4] of 11.3 ± 0.55 µM. For the same compound, the IC50 [5] was 13.1 ± 0.37 µM, the IC50 [6] was 4.91 ± 1.05 µM and the IC50 [7] was greater than 20 µM. For the same compound, the IC50 [8] was 6.97 ± 0.34 µM.

In the case of `COc1cc(NC(=O)[C@@H](Cc2ccccc2)NC(=O)OC(C)(C)C)c2cc1Oc1ccc(cc1)C[C@H]1c3cc(c(OC)cc3CCN1C)Oc1c(OC)c(OC)cc3c1[C@H](C2)N(C)CC3` [Compound 10], the “Improvement of antiproliferative activity compared with TET” value [1] is reported as “more than 6 fold”, the IC50 [1] is reported as 0.91 ± 0.05 µM and the IC50 [3] is reported as 1.96 ± 0.24 µM. It also gave an IC50 [4] of 2.59 ± 0.11 µM, an IC50 [5] of 2.31 ± 0.08 µM and an IC50 [6] of 1.8 ± 0.02 µM. The IC50 [7] was 15.54 ± 0.11 µM and the IC50 [8] was 1.54 ± 0.02 µM.

With `COc1cc(NC(=O)[C@H](Cc2ccc(O)cc2)NC(=O)OC(C)(C)C)c2cc1Oc1ccc(cc1)C[C@H]1c3cc(c(OC)cc3CCN1C)Oc1c(OC)c(OC)cc3c1[C@H](C2)N(C)CC3` [Compound 11, 14-N-(Boc-L-tyrosine)-tetrandrine] the IC50 [1] was 3.56 ± 0.27 µM, the IC50 [3] was 6.26 ± 0.41 µM and the IC50 [4] was 5.03 ± 0.04 µM. It also gave an IC50 [5] of 3.58 ± 0.15 µM, an IC50 [6] of 2.16 ± 0.32 µM and an IC50 [7] of 11.8 ± 0.61 µM. It also gave an IC50 [8] of 2.81 ± 0.35 µM.
